The values below are quoted from earlier work in patent US8263663B2, “Azide functionalized peptide targeting groups” (Intezyne Technologies, Inc., priority 2005, dated 2012).

For the series the following is noted: at similar concentrations (to 225 μg/mL).

SMILES strings stand for the structures. A value given as a limit tells only on which side of the number the result lay.

For the compound `COc1cccc2c1C(=O)c1c(O)c3c(c(O)c1C2=O)C[C@@](O)(C(=O)CO)C[C@@H]3O[C@H]1C[C@H](N)[C@H](O)[C@H](C)O1` [DOX, doxorubicin], the hemolysis is listed as more than 10%.
